Assay results reported in ChEMBL document CHEMBL5346961, “Discovery and Evaluation of 3-Quinoxalin Urea Derivatives as Potent, Selective, and Orally Available ATM Inhibitors Combined with Chemotherapy for the Treatment of Cancer via Goal-Oriented Molecule Generation and Virtual Screening” (J Med Chem, 2023).
Activity calls are given as the source filed them. No cut-off for these calls is given here.

Tests used:
[1] = tested on: MCF7; assay: cells; conditions: Homo sapiens, MCF7, 144 h
[2] = biological target: DNA-dependent protein kinase catalytic subunit (Homo sapiens, UniProt P78527); assay: Inhibition of DNA-PK (unknown origin)
[3] = biological target: T1, Serine-protein kinase ATM (Homo sapiens, UniProt Q13315); assay: Inhibition of flag tagged- ATM (unknown origin) expressed in Escherichia coli BL21 incubated for 20 mins in presence of ATP
T1 sequence (Q13315 whole entry, canonical isoform): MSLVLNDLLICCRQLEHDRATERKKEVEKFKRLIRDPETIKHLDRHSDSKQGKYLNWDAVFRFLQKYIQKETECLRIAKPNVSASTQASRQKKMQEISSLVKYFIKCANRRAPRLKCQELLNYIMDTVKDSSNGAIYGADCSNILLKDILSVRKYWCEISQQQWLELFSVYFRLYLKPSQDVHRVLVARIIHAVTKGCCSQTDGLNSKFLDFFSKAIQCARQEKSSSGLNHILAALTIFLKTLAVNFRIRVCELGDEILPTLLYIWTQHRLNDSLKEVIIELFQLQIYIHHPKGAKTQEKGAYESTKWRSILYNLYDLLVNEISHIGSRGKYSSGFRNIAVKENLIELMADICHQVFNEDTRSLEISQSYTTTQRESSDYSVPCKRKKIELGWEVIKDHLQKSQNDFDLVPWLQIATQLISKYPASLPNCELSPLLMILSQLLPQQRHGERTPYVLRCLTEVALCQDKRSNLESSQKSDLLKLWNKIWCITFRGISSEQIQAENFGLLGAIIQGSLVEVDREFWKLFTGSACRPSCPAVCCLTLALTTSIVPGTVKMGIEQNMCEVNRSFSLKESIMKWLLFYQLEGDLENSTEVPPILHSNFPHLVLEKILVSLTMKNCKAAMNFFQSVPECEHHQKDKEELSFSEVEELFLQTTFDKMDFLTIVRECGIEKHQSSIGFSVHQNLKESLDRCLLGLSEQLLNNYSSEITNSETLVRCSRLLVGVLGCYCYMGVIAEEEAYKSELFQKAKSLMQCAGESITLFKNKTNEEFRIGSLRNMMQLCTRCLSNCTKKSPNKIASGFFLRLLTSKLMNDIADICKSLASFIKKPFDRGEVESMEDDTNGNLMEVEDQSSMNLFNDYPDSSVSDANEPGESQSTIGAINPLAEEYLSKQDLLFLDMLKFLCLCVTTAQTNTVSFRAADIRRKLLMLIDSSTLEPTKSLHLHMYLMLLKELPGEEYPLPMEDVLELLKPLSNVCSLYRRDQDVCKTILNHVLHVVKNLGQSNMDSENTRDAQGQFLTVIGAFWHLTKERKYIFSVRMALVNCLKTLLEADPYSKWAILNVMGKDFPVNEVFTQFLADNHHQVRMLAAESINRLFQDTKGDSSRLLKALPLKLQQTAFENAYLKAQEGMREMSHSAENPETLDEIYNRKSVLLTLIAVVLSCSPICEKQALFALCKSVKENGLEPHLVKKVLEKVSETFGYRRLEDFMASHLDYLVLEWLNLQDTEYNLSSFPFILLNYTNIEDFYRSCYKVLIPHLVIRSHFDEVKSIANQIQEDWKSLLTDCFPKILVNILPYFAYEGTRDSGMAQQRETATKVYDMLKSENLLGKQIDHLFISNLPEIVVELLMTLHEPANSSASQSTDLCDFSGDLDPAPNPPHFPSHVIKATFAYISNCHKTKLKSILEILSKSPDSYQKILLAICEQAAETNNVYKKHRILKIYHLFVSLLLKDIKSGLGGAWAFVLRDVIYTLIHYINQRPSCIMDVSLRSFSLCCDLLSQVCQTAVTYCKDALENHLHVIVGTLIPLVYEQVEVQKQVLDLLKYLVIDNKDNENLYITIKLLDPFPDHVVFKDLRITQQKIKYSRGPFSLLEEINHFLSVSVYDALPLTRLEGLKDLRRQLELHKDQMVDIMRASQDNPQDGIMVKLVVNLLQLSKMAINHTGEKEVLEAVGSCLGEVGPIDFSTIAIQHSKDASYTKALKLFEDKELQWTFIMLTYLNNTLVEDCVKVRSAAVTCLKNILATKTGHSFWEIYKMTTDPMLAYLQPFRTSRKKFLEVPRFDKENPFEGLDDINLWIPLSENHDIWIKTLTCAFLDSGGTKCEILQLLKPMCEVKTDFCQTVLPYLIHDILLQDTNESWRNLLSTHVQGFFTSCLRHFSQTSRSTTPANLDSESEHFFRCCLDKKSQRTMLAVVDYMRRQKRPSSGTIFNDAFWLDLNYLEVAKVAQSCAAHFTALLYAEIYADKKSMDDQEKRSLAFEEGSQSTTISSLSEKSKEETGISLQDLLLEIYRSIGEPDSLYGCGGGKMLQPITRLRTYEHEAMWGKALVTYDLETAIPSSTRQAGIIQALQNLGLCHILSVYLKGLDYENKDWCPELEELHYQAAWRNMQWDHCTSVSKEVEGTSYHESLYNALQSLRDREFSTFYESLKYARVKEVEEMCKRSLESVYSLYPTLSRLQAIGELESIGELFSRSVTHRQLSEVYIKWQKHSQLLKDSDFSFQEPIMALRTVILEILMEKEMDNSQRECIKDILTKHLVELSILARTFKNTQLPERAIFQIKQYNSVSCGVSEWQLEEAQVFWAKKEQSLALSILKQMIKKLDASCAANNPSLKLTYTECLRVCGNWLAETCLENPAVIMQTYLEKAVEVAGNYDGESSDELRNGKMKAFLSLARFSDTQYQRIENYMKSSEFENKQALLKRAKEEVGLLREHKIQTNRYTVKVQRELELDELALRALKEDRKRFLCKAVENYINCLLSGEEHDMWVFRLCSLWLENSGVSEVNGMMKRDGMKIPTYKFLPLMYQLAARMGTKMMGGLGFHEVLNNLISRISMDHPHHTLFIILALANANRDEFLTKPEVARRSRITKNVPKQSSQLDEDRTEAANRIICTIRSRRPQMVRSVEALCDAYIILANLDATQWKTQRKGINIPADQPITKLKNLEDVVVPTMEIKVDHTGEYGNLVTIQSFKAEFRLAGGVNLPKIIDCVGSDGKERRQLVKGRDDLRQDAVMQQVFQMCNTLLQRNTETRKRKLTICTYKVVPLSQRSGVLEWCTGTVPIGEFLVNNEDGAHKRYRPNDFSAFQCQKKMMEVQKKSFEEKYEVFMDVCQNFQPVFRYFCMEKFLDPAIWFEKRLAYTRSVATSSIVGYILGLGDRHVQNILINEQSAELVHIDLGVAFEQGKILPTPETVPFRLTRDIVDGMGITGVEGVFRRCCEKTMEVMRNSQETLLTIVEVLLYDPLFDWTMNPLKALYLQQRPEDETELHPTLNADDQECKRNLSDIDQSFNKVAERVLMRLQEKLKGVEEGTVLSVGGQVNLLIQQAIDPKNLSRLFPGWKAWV

[4] = biological target: Phosphatidylinositol 4,5-bisphosphate 3-kinase catalytic subunit alpha isoform (Homo sapiens, UniProt P42336); assay: Inhibition of PIK3alpha (unknown origin)
Chain of Phosphatidylinositol 4,5-bisphosphate 3-kinase catalytic subunit alpha isoform (P42336 whole entry, canonical isoform): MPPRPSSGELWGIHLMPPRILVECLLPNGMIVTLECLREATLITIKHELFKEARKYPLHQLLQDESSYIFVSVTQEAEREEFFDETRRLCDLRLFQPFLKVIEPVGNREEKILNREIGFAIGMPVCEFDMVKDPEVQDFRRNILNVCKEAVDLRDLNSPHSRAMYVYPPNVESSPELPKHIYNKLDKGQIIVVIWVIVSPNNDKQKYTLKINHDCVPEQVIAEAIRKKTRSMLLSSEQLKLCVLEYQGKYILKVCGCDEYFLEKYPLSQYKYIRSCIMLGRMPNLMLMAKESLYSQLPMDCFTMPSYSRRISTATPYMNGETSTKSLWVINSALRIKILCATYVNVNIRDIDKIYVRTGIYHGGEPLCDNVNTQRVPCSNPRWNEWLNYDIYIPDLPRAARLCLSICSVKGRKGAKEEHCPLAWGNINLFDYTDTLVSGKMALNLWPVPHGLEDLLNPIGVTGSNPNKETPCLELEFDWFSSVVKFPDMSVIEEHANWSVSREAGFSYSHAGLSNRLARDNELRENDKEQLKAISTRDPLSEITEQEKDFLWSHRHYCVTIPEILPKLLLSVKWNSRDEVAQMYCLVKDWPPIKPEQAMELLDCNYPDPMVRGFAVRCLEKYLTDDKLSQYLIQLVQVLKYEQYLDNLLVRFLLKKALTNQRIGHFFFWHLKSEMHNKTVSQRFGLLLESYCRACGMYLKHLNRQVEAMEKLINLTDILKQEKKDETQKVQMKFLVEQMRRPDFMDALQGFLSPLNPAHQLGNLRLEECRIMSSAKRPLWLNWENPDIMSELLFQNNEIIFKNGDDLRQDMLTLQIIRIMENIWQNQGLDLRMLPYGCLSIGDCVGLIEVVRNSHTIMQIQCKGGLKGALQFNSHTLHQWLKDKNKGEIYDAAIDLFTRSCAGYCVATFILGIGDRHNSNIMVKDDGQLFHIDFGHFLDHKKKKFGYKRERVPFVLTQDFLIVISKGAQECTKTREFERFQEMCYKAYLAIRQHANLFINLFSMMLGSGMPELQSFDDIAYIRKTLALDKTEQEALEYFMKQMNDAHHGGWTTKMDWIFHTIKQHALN

[5] = tested on: HCT-116; assay: Induction of apoptosis in human HCT-116 cells assessed as viable cells at 5 uM measured after 2 days by AnnexinV-FITC/PI staining based analysis (reference value: 72.8%); format: functional; conditions: HCT-116, 48 h, time 2 day, read-out: Activity
[6] = tested on: SW-620; assay: Inhibition of colony formation in human SW620 cells measured after 1 week by crystal violet staining based […] assay; format: functional, cell-based; conditions: SW-620, 168 h
[7] = tested on: HCT-116; assay: Induction of DNA damage in human HCT-116 cells assessed as upregulation of gammaH2AX at 25 uM measured after 4 hrs by Western blot analysis; format: functional, cell-based
[8] = Toxicity in BALB/c nude mouse assessed as reduction in body weight at 40 mg/kg, ip administered once weekly for 21 days relative to control; format: organism-based; set-up: scale not given: the % may be the effect or the level left; conditions: in vivo, 504 h, time 21 day
[9] = tested on: HCT-116; assay: Induction of apoptosis in human HCT-116 cells assessed as early apoptotic cells at 5 uM measured after 2 days by AnnexinV-FITC/PI staining based analysis (reference value: 14.4%); format: functional; conditions: time 2 day
[10] = tested on: HCT-116; assay: Induction of DNA damage in human HCT-116 cells assessed as upregulation of p21 at T145 residue at 25 uM measured after 4 hrs by Western blot analysis; format: functional, cell-based
[11] = tested on: HCT-116; assay: Induction of apoptosis in human HCT-116 cells assessed as necrotic cells at 5 uM measured after 2 days by AnnexinV-FITC/PI staining based analysis (reference value: 0.64%); format: functional; conditions: time 2 day
[12] = tested on: HCT-116; assay: Induction of apoptosis in human HCT-116 cells assessed as late apoptotic cells at 5 uM measured after 2 days by AnnexinV-FITC/PI staining based analysis (reference value: 12.2%); format: functional; conditions: time 2 day
[13] = tested on: SW-620; assay: Antitumor activity against human SW620 cells xenografted in BALB/c nude mouse model assessed as tumor growth inhibition at 40 mg/kg, ip administered once weekly for 21 days by caliper method relative to control; format: functional; conditions: SW-620, 504 h, time 21 day, read-out: TGI
[14] = tested on: HCT-116; assay: Induction of DNA damage in human HCT-116 cells assessed as upregulation of ATM phosphorylation at S1981 residue at 25 uM measured after 4 hrs by Western blot analysis; format: functional, cell-based
[15] = tested on: SW-620; assay: Antiproliferative activity against human SW620 cells assessed as reduction in cell viability measured after 6 days by MTT assay; format: functional, cell-based; conditions: SW-620, 144 h
[16] = tested on: HCT-116; assay: Inhibition of colony formation in human HCT-116 cells at 0.01 uM preincubated for 1 hr followed by exposure to 2 Gy gamma irradiation and measured after 1 week by crystal violet staining based […] assay relative to control; format: functional; conditions: HCT-116, light or radiation study, time 169 hrs
[17] = Metabolic stability in human liver microsomes assessed as half life at 1 uM in presence of NADPH-regenerating system by LC-MS/MS analysis; format: ADME, Microsome
[18] = Metabolic stability in human liver microsomes assessed as clearance at 1 uM in presence of NADPH-regenerating system by LC-MS/MS analysis; format: ADME, Microsome
[19] = biological target: T1, Serine-protein kinase ATM; assay: Inhibition of ATM (unknown origin) assessed as remaining activity at 0.01 uM preincubated with compound for 30 mins followed by substrate addition and measured after 2 hrs by HTRF method relative to control; conditions: time 2.5 hrs
[20] = biological target: Serine/threonine-protein kinase ATR (Homo sapiens, UniProt Q13535); assay: Inhibition of ATR (unknown origin) assessed as remaining activity at 1 uM in presence of [gamma33P-ATP] by radiometric assay
[21] = tested on: HCT-116; assay: Inhibition of colony formation in human HCT-116 cells preincubated for 1 hr followed by exposure to 2 Gy gamma irradiation and measured after 1 week by crystal violet staining based […] assay; format: functional, cell-based; conditions: HCT-116, light or radiation study
[22] = biological target: T1, Serine-protein kinase ATM; assay: Inhibition of ATM (unknown origin) preincubated with compound for 30 mins followed by substrate addition and measured after 2 hrs by HTRF method
[23] = tested on: HCT-116; assay: Antiproliferative activity against human HCT-116 cells assessed as cell survival at 1 uM incubated for 6 days by MTT assay relative to control; format: functional; conditions: HCT-116, 144 h, time 6 day, read-out: Survival
[24] = tested on: HCT-116; assay: Antiproliferative activity against human HCT-116 cells assessed as reduction in cell viability incubated for 6 days by MTT assay; format: functional, cell-based; conditions: HCT-116, 144 h
[25] = tested on: HCT-116; assay: Induction of DNA damage in human HCT-116 cells assessed as reduction in ATM phosphorylation at S1981 residue at 2 uM measured after 4 hrs by Western blot analysis; format: functional, cell-based
[26] = tested on: HCT-116; assay: Induction of DNA damage in human HCT-116 cells assessed as reduction in p21 phosphorylation at T145 residue at 2 uM measured after 4 hrs by Western blot analysis; format: functional, cell-based
[27] = Clearance in Balb/C mouse at 10 mg/kg,iv measured upto 48 hrs by LC-MS/MS analysis; format: ADME, organism-based; conditions: in vivo
[28] = Clearance in Balb/C mouse at 10 mg/kg,po measured upto 48 hrs by LC-MS/MS analysis; format: ADME, organism-based; conditions: in vivo
[29] = AUC (0 to t) in Balb/C mouse at 10 mg/kg,po measured upto 48 hrs by LC-MS/MS analysis; format: ADME, organism-based; set-up: dose 10 mg/kg, time < 48 hrs, route po; conditions: in vivo
[30] = AUC (0 to t) in Balb/C mouse at 10 mg/kg,iv measured upto 48 hrs by LC-MS/MS analysis; format: ADME, organism-based; set-up: time < 48 hrs, dose 10 mg/kg, route iv; conditions: in vivo
[31] = tested on: MCF7; assay: Antiproliferative activity against human MCF7 cells assessed as reduction in cell viability incubated for 6 days by MTT assay; format: functional, cell-based; conditions: MCF7, 144 h
[32] = Cmax in Balb/C mouse at 10 mg/kg,po measured upto 48 hrs by LC-MS/MS analysis; format: ADME, organism-based; set-up: dose 10 mg/kg, time < 48 hrs, route po; conditions: in vivo
[33] = tested on: MCF7; assay: Synergistic antiproliferative activity against human MCF7 cells assessed as fold increase in etoposide IC50 at 200 nM measured after 6 days by MTT assay; format: functional; conditions: time 6 day
[34] = Volume of distribution at steady state in Balb/C mouse at 10 mg/kg,iv measured upto 48 hrs by LC-MS/MS analysis; format: ADME, organism-based; conditions: in vivo, read-out: Vdss
[35] = Tmax in Balb/C mouse at 10 mg/kg,po measured upto 48 hrs by LC-MS/MS analysis; format: ADME, organism-based; conditions: in vivo
[36] = tested on: MCF7; assay: Synergistic antiproliferative activity against human MCF7 cells assessed as fold increase in irinotecan IC50 at 200 nM measured after 6 days by MTT assay; format: functional; conditions: time 6 day
[37] = Oral bioavailability in Balb/C mouse at 10 mg/kg measured upto 48 hrs by LC-MS/MS analysis; format: ADME, organism-based; conditions: in vivo
[38] = Tmax in Balb/C mouse at 10 mg/kg,iv measured upto 48 hrs by LC-MS/MS analysis; format: ADME, organism-based; conditions: in vivo
[39] = tested on: SW-620; assay: Synergistic antiproliferative activity against human SW620 cells assessed as fold increase in irinotecan IC50 at 200 nM measured after 6 days by MTT assay; format: functional; conditions: time 6 day
[40] = tested on: SW-620; assay: Antitumor activity against human SW620 cells xenografted in BALB/c nude mouse model assessed as tumor growth inhibition at 40 mg/kg, po administered once daily for 3 days weekly after irinotecan post treatment for 21 days by caliper method relative to control; format: functional; conditions: SW-620, 504 h, time 21 day, read-out: TGI
[41] = Half life in Balb/C mouse at 10 mg/kg,iv measured upto 48 hrs by LC-MS/MS analysis; format: ADME, organism-based; conditions: in vivo
[42] = Volume of distribution at steady state in Balb/C mouse at 10 mg/kg,po measured upto 48 hrs by LC-MS/MS analysis; format: ADME, organism-based; conditions: in vivo
[43] = tested on: SW-620; assay: Antiproliferative activity against human SW620 cells assessed as reduction in cell viability incubated for 6 days by MTT assay; format: functional, cell-based; conditions: SW-620, 144 h
[44] = Half life in Balb/C mouse at 10 mg/kg,po measured upto 48 hrs by LC-MS/MS analysis; format: ADME, organism-based; conditions: in vivo
[45] = tested on: HCT-116; assay: Inhibition of colony formation in human HCT-116 cells assessed as assessed as fold change in IC50 in presence of ionizing radiation; format: functional
[46] = tested on: SW-620; assay: Synergistic inhibition of colony formation in human SW620 cells assessed as fold increase in irinotecan IC50 at 200 nM preincubated for 1 hr followed by irinotecan addition and measured after 1 week by crystal violet staining based […] assay; format: functional; conditions: time 169 hrs
[47] = Cmax in Balb/C mouse at 10 mg/kg,iv measured upto 48 hrs by LC-MS/MS analysis; format: ADME, organism-based; set-up: time < 48 hrs, dose 10 mg/kg, route iv; conditions: in vivo

`COc1cc([C@@H]2c3cc4c(cc3[C@@H](O[C@@H]3O[C@@H]5CO[C@@H](C)O[C@H]5[C@H](O)[C@H]3O)[C@H]3COC(=O)[C@H]23)OCO4)cc(OC)c1O` [ETOPOSIDE] gave an IC50 [1] of 210 nM.

With `CC(C)(C#N)c1ccc(N2C(=O)OCc3cnc4ccc(-c5cnc6ccccc6c5)cc4c32)cc1` the IC50 [2] was 36 nM, the IC50 [3] was 545 nM and the IC50 [4] was 170 nM.

`CCc1c2c(nc3ccc(OC(=O)N4CCC(N5CCCCC5)CC4)cc13)-c1cc3c(c(=O)n1C2)COC(=O)[C@]3(O)CC` [IRINOTECAN] showed a viability at 5 µM [5] of 52.3%, an IC50 [6] of 230 nM and an IC50 [1] of 910 nM. The Activity [7] was “inactive”, the Activity [8] was < 12% and the Activity [9] was 26%. For the same compound, the Activity [10] was “Active”, the Activity [11] was 1.7% and the Activity [12] was 19.9%. The inhibition in vivo at 40 mg/kg [13] was 69.2%, the Activity [14] was “Active” and the IC50 [15] was 980 nM.

With `CC(C)NC(=O)N(C)c1cnc2ccc(-c3ccc(OCCCN(C)C)nc3)cc2n1` the inhibition at 0.01 µM [16] was 58.4%, the half-life at 1 µM [17] was 35 min and the CLH [18] was 40 mL/min/g. It also gave an Activity [19] of 14%, an Activity [20] of 105% and an IC50 [21] of 8.94 nM. The IC50 [22] was 2 nM and the viability at 1 µM [23] was > 83%.

`CCCCNC(=O)N(C)c1cnc2ccc(-c3ccc(OCCCN(C)C)nc3)cc2n1` gave an inhibition at 0.01 µM [16] of 92.7%, a half-life at 1 µM [17] of 22 min and a CLH [18] of 64 mL/min/g. The Activity [19] was 3%, the Activity [20] was 105% and the IC50 [21] was 7.65 nM. For the same compound, the IC50 [22] was 0.8 nM and the viability at 1 µM [23] was > 83%.

Compound `CN(C)CCCOc1ccc(-c2ccc3ncc(N(C)C(=O)Nc4ccccc4Cl)nc3c2)cn1` has an inhibition at 0.01 µM [16] of 84.4%, a half-life at 1 µM [17] of 33 min and a CLH [18] of 43 mL/min/g. For the same compound, the Activity [19] was 3%, the Activity [20] was 102% and the IC50 [21] was 4.35 nM. The IC50 [22] was 0.9 nM and the viability at 1 µM [23] was > 83%.

For `COCc1ccc(-c2ccc3ncc(C(N)=O)c(N[C@@H](C)C4CCOCC4)c3c2)cn1`, the inhibition at 0.01 µM [16] was 13.2%, the IC50 [24] was > 9 µM and the half-life at 1 µM [17] was 193 min. The Activity [25] was “Active”, the CLH [18] was 7.2 mL/min/g and the Activity [26] was “Active”. For the same compound, the clearance [27] was 22 mL/min/kg, the CL/F [28] was 23 mL/min/kg and the AUCt [29] was 7.39676 µg·h/mL. The AUCt [30] was 7.77202 µg·h/mL, the IC50 [31] was > 9 µM and the Cmax [32] was 1360 ng/mL. For the same compound, the “fold change (FC)” value [33] was 1.4, the Vd [34] was 7.68 L/kg and the Tmax [35] was 1.33 h. For the same compound, the “fold change (FC)” value [36] was 2.1, the bioavailability [37] was 95.2% and the Tmax [38] was 4.8 min. For the same compound, the “fold change (FC)” value [39] was 1.5, the inhibition in vivo at 40 mg/kg [40] was 77.7% and the t1/2 [41] was 4.28 h. The IC50 [21] was 20 nM, the Vdss [42] was 6.49 L/kg and the IC50 [43] was > 9 µM. The t1/2 [44] was 3.16 h, the “fold change (FC)” value [45] was 6520 and the “fold change (FC)” value [46] was 3.3. The Cmax [47] was 3010 ng/mL and the viability at 1 µM [23] was > 83%.
